These results are taken from US20120142676A1, “Oxathiazine and dithiine oxides as inhibitors of sulfhydryl-dependent biomolecules” (priority 2010, published 2012).

pIC50: −log10 of the molar value. Where two headings read alike, the source gives them in different places.

One data set addresses T1, human topoisomerase IIα (Homo sapiens, UniProt P11388).
T1 construct: 300 ng K562 cells nuclear extract, the amount that gave 80% decatenation; endogenous in cells; host or cells: K562 cells nuclear extract
Briefly: Topoisomerase IIα decatenation inhibition assay. Type of data set: biochemical. The note with it: K562 cells nuclear extract, kDNA decatenation; for inhibition at 3 µM / inhibition at 30 µM: read-out: % Inhibition of topoisomerase II catalytic activity. As for the experimental part: The catalytic inhibition of human topoisomerase IIα by a drug was measured by the ATP-dependent decatenation of kDNA (Topogen, Columbus, Ohio) into minicircles of DNA as we previously described (Hasinoff 1995 QSAR ICRF-187). The 20 μl reaction mixture contained 0.5 mM ATP, 50 mM Tris-HCl (pH 8.0), 120 mM KCl, 10 mM MgCl2, 30 μg/ml bovine serum albumin, 40 ng kDNA, drug or DMSO (0.5 μl) and 300 ng K562 cells nuclear extract, the amount that gave 80% decatenation. The enzymatic reaction was carried out at 37° C. and was terminated by the addition of 6 μl of buffer containing 5 mM Tris pH 8.0, 30% w/v sucrose, 0.5% bromophenol blue, and 125 mM EDTA. The resulting mixture was separated by electrophoresis (2 h at 8 V/cm) on an agarose gel prepared from 1.2% w/v agarose and 0.5 μg/ml ethidium bromide in TAE buffer pH 8.0 (40 mM Tris base, 0.114% (v/v) glacial acetic acid, 2 mM EDTA). The DNA in the gel was imaged by its fluorescence on an Alpha Annotech Fluorchem 8900 imaging system equipped with a 365 nm illuminator and a CCD camera. Densitometry scanning of gel photographs was used to obtain the fluorescence intensity of the band corresponding to the DNA minicircles. The percentage inhibition of K562 topoisomerase II catalytic activity at concentrations of 3 and 30 μM was determined using the following equation: % Inhibition=[(1−(Bdrug−Bbackground)/Bdmso]×100, where Bdrug is the band intensity value for the enzymatic reaction sample treated with drug, Bbackground is the band intensity value for sample without the enzyme, and Bdmso is the band intensity value for the enzymatic reaction sample treated with DMSO solvent only.

The test system of data set [1] is human leukemia K562 cells. Briefly: K562 cell growth inhibition assay (MTS). Format: cell-based. Conditions: 72 h incubation, read-out: Median growth inhibitory concentration (IC50) of K562 cells. On the procedure:
K562 cells were obtained from American Type Culture Collection (Rockville, Md.). These cells were maintained as suspension cultures in alpha minimum essential medium (αMEM) (Gibco BRL, Burlington, Canada) containing 2 mM L-glutamine and supplemented with 10% fetal calf serum (Invitrogen, Burlington, ON, Canada), 20 mM NaHCO3, 20 mM HEPES (Sigma), 100 units/ml penicillin G, and 100 μg/ml streptomycin at pH 7.4 in an atmosphere of 5% CO2 and 95% air at 37° C. For the measurement of growth inhibition, cells in exponential growth were harvested and seeded at 6000 cells/well in 96-well plates (100 μl/well). Drugs were dissolved in DMSO and added to the wells such that the final concentration of DMSO was 0.5% (v/v). After 72 h incubation, 7 μl of 3-(4,5-dimethylthiazol-2-yl)-5-(3-carboxymethoxyphenyl)-2-(4-sulfophenyl)-2H-tetrazolium (MTS) Cell Titer 96® AQueous One Solution (Promega, Md., WI) was added to each well and incubated for a further 3 h. The absorbance was measured in a Molecular Devices (Menlo Park, Calif.) plate reader. The spectrophotometric 96-well plate cell growth inhibition assay measures the ability of the cells to enzymatically reduce MTS. Three replicates were measured at each drug concentration, and the IC50 values and their SEs for growth inhibition were obtained by fitting the absorbance-drug concentration data to a four-parameter logistic equation.

The nature of data set [2]: Thioglo-1 fluorescent labeling of sulfhydryl groups, cysteine. Conditions: 50 μM drug, 37° C., 3 h, 20 mM Tris pH 8.0. As for the experimental part:
(§1) The ability of drugs to label sulfhydryl groups of cysteine, glutathione, human serum albumin (HSA) and biomolecules in K562 cells was determined spectrofluorometrically using Thioglo-1, a maleimide reagent that reacts quickly with the sulfhydryl groups to produce highly fluorescent covalent adducts. Drugs that react with sulfhydryl groups block the formation of fluorescent adducts when sulfhydryl reactant is treated with drugs prior to Thioglo-1 treatment. Cysteine (10 μM), glutathione (10 μM), human serum albumin (10 μM), or K562 cell homogenate (6×10^5 cells) in 20 mM Tris pH 8.0, was treated with 1μl of drug (or not) in DMSO at 50 μM reaction concentration at 37° C. for 3 h, followed by the addition of Thioglo-1 (22 μM). The fluorescence was measured in a Fluostar Galaxy (BMG, Durham, N.C.) fluorescence plate reader using an excitation wavelength of 380 nm and an emission wavelength of 520 nm, and the percentage inhibition of fluorescent labeling was obtained using the following equation: % Inhibition=[(1−(Fdrug−Fbackground)/Fdmso]×100, where Fdrug is the fluorescent value for Thioglo-1 treatment of biomolecules pretreated with drug, Fbackground is the fluorescent value for sample containing Thioglo-1 in Tris buffer only, and Fdmso is the fluorescent value for Thioglo-1 treatment of biomolecules pretreated with DMSO solvent only.

Data set [3] in a line: Thioglo-1 fluorescent labeling of sulfhydryl groups, glutathione. Conditions: 50 μM drug, 37° C., 3 h, 20 mM Tris pH 8.0. As for the experimental part:
as §1

For data set [4], the target named is T2, human serum albumin (HSA) (Homo sapiens, UniProt P02768). Briefly: Thioglo-1 fluorescent labeling of sulfhydryl groups, human serum albumin. The note with it: 50 μM drug, HSA 10 μM, 37° C., 3 h, 20 mM Tris pH 8.0. Type of data set: biochemical. As for the experimental part: as §1
A further data set has as its system K562 cell homogenate. Briefly: Thioglo-1 fluorescent labeling of sulfhydryl groups, K562 cell homogenate. Format: biochemical, human. The note with it: 50 μM drug, 6×10^5 cells, 37° C., 3 h, 20 mM Tris pH 8.0. On the procedure:
as §1

For data set [5], the target named is T2, human serum albumin (HSA). As to the kind of experiment: ESI-MS study on covalent labeling of sulfhydryl group of HSA. Type of data set: binding. The note with it: drug with 65 μM HSA, Tris pH 7.5, 5 h, room temperature. On the procedure:
The MS drug-HSA protein binding studies were carried out using an Applied Biosystems API 2000 Triple Quadrupole mass spectrometer (Thornhill, Canada) equipped with a syringe pump (Harvade Apparatus, Holliston, Mass.) at a flow rate of 5-10 μl/min. The Analyst software (version 1.4) was used for system control and data acquisition. The ESI source was operated in the positive ion mode with an electrospray voltage of +4.4 kV without capillary heating. MagTran freeware (version 1.02, http://www.geocities.com/SiliconValley/Hills/2679/magtran.html) was used for charge state deconvolution of HSA and drug-HSA covalent adducts.
The reaction of drug and HSA was carried out by mixing drug (or not) in DMSO (11μl, 6 mM) with HSA in 16 mM Tris pH 7.5 buffer (1 ml, 65 μM) for 5 h at room temperature. The reaction mixture was then dialyzed using a dialysis membrane with a 10,000 Da cutoff. The dialyzed mixture (150 μl) was diluted with a solution mixture of water (124 μl), methanol (76 μl), and formic acid (17 μl, 6% v/v). Scanning was 1000-1800 m/z units every 4 s with a step size of 0.10 amu.

T1 sequence (P11388 whole entry): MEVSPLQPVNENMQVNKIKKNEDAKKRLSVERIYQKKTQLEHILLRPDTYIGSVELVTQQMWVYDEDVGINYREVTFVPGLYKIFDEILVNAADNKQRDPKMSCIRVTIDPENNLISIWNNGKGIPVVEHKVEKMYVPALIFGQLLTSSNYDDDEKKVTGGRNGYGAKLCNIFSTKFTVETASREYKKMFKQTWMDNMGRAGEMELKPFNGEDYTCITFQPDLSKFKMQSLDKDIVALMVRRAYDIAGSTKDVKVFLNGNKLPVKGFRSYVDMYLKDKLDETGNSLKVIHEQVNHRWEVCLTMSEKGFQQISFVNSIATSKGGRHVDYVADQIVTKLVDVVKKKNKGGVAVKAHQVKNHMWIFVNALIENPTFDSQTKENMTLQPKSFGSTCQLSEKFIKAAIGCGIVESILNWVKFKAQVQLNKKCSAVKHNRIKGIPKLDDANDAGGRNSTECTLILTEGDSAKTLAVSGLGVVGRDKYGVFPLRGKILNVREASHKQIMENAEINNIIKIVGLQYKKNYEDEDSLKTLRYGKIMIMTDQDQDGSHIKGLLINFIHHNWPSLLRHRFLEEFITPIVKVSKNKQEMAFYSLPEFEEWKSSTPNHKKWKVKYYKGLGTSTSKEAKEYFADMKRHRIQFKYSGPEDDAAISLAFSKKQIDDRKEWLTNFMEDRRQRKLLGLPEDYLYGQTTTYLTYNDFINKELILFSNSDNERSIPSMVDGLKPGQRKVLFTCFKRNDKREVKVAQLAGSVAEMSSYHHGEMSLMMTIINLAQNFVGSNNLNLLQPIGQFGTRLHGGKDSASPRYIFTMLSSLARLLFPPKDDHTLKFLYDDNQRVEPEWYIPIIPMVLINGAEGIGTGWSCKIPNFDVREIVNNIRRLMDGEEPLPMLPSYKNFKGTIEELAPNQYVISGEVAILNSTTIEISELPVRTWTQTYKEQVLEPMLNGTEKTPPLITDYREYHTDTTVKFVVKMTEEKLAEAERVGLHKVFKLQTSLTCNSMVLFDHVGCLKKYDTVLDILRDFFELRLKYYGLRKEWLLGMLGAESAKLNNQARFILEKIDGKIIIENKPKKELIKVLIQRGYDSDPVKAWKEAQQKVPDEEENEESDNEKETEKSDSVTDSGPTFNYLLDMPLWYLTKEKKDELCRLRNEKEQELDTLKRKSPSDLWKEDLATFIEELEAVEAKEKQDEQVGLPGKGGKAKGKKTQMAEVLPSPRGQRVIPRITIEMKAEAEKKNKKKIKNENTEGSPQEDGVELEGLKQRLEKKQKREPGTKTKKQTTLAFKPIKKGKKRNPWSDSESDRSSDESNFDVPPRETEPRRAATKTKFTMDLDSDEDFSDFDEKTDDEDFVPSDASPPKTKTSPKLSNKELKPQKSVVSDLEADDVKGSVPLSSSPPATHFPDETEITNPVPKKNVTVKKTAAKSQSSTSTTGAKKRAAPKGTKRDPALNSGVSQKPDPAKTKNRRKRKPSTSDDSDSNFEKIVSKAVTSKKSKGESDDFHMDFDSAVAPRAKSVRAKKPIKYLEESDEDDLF
T2 sequence (P02768 25-609): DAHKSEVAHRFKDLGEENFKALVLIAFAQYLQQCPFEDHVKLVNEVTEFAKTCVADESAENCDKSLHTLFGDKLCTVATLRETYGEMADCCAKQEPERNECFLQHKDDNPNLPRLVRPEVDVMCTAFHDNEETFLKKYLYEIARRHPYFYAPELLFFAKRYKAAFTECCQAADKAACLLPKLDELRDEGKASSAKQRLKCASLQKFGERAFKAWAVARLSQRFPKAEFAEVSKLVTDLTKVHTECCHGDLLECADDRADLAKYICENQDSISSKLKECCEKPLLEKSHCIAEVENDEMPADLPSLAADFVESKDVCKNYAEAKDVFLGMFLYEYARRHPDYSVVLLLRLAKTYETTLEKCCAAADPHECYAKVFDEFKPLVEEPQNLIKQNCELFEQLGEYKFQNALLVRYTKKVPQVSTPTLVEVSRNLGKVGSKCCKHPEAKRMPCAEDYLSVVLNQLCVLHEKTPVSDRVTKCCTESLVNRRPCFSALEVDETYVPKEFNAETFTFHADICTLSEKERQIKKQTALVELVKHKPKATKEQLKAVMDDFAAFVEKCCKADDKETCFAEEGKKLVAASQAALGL

What is called inhibition is the share of the control response that was lost under treatment. Usually melting point stands for the temperature of the solid-liquid transition. Consider `CCOC(=O)C1=C(c2ccccc2)S(=O)(=O)CCS1(=O)=O` [compound 17, ethyl 1,1,4,4-tetraoxo-3-phenyl-5,6-dihydro-1λ^6,4λ^6-dithiine-2carboxylate], for which the melting point is 190 to 191 °C. In addition, the inhibition at 3 µM on human topoisomerase IIα (3 μM) came to 100%. The inhibition at 30 µM at human topoisomerase IIα (30 μM) came to 100%. Besides, the pIC50 in data set [1] (Homo sapiens, K562, 72 h) is 5.52.

In turn, `O=C(Nc1ccccc1)C1=C(C(F)(F)F)S(=O)(=O)CCS1(=O)=O` [compound 25, 1,1,4,4-tetraoxo-N-phenyl-3-(trifluoromethyl)-5,6-dihydro-1λ^6,4λ^6-dithiine-2-carboxamide] gave a melting point of 217 to 219 °C. In addition, at human topoisomerase IIα (3 μM), the inhibition at 3 µM was found to be 100%. Besides, at human topoisomerase IIα (30 μM), the inhibition at 30 µM turned out to be 100%. In data set [1] (Homo sapiens, K562, 72 h), the pIC50 is 5.40.

`CCOC(=O)C1=C(C(=O)OCC)S(=O)(=O)CCS1(=O)=O` [compound 1] showed a melting point of 68 to 70 °C. For the same molecule, the “% Inhibition of topoisomerase II catalytic activity” value at human topoisomerase IIα (3 μM) was 70%. Also, on human topoisomerase IIα (30 μM), the “% Inhibition of topoisomerase II catalytic activity” value was 100%. Further, in data set [1], the pIC50 is 4.96.

As to `[O-][S+]1CCON=C1c1cc2ccccc2s1` (centres unmarked) [CMPD #9], in data set [2], the “% Inhibition of Thioglo-1 fluorescent labeling of 10 μM Cysteine” value was 100%. In data set [3], the “% Inhibition of Thioglo-1 fluorescent labeling of 10 μM Glutathione” value came to 100%. Moreover, the “% Inhibition of Thioglo-1 fluorescent labeling of Human serum albumin” value in data set [4] is 85%. Besides, in the data set on K562 cell homogenate, the “% Inhibition of Thioglo-1 fluorescent labeling of K562 Cell homogenate” value is reported as 95%. In addition, the “% Inhibition of topoisomerase II catalytic activity” value at human topoisomerase IIα (3 μM) and on human topoisomerase IIα (30 μM) was 100% each time. Further, in data set [1], the pIC50 was 6.15. Besides, the “Covalent labeling of HSA (ESI-MS peak description)” value in data set [5] was “Covalent adduct of HSA and Compound 9”.

`O=C(Nc1ccccc1)C1=NOCC[S+]1[O-]` (centres unmarked) [compound 3, 4-oxo-5,6-dihydro-N-phenyl-1,4λ^4,2-oxathiazine-3-carboxamide] showed a melting point of 150 to 154 °C. Further, the inhibition at 3 µM at human topoisomerase IIα (3 μM) came out at 100%. In addition, the inhibition at 30 µM at human topoisomerase IIα (30 μM) was found to be 100%. In data set [1] (Homo sapiens, K562, 72 h), the pIC50 is 6.00.

As for `CCOC(=O)C1=C(C(=O)OCC)S(=O)(=O)CCS1(=O)=O` [compound 20, 2,3-diethyl 1,1,4,4-tetraoxo-5,6-dihydro-1λ^6,4λ^6-dithiine-2,3-dicarboxylate], the melting point lay in the range of 154 to 156 °C. Further, at human topoisomerase IIα (30 μM), the inhibition at 30 µM stood at 100%. For the same molecule, in data set [1], the pIC50 is 6.00.

Consider `O=C(Nc1ccccc1)C1=NOCCS1(=O)=O` [compound 4, 4,4-dioxo-N-phenyl-5,6-dihydro-1, 4λ^6,2-oxathiazine-3-carboxamide], for which the melting point fell in the range of 206 to 207 °C. In addition, the inhibition at 3 µM at human topoisomerase IIα (3 μM) came to 100%. For the same molecule, the inhibition at 30 µM at human topoisomerase IIα (30 μM) was 100%. The pIC50 in data set [1] (Homo sapiens, K562, 72 h) was 6.15.

`CCOC(=O)C1=C(C(F)(F)F)S(=O)(=O)CCS1(=O)=O` [compound 24, ethyl 1,1,4,4-tetraoxo-3-(trifluoromethyl)-5,6-dihydro-1λ^6,4λ^6-dithiine-2-carboxylate] gave a melting point of 142 to 145 °C. On human topoisomerase IIα (3 μM), the inhibition at 3 µM is 100%. Besides, the inhibition at 30 µM at human topoisomerase IIα (30 μM) was found to be 100%. Also, the pIC50 in data set [1] (Homo sapiens, K562, 72 h) is 5.60.
